Paper doi:10.1101/2023.03.24.534094v2 (biorxiv, 2023)
Where two headings read alike, the source gives them in different places.

Columns and labels:
Assay in all cases: biochemical
AurA = target: T1, AurA (Homo sapiens, UniProt O14965)
T1 sequence (O14965 1-403): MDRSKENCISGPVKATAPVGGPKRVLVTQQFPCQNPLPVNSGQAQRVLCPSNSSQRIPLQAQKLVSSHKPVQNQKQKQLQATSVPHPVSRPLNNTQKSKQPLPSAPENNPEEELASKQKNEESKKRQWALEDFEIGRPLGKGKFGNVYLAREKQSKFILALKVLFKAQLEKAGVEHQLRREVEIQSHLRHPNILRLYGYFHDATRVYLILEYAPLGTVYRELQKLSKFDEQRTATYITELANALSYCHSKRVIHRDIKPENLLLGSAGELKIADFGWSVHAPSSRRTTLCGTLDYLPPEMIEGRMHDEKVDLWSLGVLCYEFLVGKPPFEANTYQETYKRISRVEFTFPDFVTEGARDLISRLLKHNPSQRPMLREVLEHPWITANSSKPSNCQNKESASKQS

Haspin = target: T2, Haspin (Homo sapiens, UniProt Q8TF76)
T2 sequence (Q8TF76 1-798): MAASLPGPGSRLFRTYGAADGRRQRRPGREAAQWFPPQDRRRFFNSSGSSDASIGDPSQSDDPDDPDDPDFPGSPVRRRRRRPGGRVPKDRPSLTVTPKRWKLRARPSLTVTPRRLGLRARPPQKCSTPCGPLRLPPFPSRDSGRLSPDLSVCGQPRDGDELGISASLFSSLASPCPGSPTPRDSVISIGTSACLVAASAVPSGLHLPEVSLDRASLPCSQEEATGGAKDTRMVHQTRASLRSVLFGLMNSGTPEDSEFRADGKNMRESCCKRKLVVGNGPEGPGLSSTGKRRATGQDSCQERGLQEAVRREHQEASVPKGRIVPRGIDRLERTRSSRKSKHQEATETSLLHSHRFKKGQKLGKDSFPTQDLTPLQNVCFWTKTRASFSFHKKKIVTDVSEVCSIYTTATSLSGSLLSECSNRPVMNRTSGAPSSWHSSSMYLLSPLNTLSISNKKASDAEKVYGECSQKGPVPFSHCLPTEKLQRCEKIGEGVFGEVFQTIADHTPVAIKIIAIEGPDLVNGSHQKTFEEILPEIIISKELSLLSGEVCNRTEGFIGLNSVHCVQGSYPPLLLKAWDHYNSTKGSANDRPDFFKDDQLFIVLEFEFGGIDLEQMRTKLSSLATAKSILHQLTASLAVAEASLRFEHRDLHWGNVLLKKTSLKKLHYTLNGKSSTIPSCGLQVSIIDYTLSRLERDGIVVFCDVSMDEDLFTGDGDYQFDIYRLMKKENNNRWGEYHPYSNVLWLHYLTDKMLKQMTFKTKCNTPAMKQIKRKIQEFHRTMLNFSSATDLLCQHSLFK

MAP2K6 = target: T3, MAP2K6 (Homo sapiens, UniProt P52564)
T3 sequence (P52564 1-334): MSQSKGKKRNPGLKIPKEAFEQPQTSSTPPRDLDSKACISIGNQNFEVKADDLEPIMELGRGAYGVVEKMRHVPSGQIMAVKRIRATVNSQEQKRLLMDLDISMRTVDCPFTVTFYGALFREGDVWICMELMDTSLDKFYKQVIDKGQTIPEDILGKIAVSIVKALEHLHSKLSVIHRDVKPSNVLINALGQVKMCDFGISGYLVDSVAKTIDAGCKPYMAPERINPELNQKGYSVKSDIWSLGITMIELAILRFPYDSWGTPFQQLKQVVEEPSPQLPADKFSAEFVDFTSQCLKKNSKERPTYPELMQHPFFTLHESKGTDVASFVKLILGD

FLT1 = FLT1 (Homo sapiens, UniProt P17948)
Chain of FLT1 (P17948 whole entry): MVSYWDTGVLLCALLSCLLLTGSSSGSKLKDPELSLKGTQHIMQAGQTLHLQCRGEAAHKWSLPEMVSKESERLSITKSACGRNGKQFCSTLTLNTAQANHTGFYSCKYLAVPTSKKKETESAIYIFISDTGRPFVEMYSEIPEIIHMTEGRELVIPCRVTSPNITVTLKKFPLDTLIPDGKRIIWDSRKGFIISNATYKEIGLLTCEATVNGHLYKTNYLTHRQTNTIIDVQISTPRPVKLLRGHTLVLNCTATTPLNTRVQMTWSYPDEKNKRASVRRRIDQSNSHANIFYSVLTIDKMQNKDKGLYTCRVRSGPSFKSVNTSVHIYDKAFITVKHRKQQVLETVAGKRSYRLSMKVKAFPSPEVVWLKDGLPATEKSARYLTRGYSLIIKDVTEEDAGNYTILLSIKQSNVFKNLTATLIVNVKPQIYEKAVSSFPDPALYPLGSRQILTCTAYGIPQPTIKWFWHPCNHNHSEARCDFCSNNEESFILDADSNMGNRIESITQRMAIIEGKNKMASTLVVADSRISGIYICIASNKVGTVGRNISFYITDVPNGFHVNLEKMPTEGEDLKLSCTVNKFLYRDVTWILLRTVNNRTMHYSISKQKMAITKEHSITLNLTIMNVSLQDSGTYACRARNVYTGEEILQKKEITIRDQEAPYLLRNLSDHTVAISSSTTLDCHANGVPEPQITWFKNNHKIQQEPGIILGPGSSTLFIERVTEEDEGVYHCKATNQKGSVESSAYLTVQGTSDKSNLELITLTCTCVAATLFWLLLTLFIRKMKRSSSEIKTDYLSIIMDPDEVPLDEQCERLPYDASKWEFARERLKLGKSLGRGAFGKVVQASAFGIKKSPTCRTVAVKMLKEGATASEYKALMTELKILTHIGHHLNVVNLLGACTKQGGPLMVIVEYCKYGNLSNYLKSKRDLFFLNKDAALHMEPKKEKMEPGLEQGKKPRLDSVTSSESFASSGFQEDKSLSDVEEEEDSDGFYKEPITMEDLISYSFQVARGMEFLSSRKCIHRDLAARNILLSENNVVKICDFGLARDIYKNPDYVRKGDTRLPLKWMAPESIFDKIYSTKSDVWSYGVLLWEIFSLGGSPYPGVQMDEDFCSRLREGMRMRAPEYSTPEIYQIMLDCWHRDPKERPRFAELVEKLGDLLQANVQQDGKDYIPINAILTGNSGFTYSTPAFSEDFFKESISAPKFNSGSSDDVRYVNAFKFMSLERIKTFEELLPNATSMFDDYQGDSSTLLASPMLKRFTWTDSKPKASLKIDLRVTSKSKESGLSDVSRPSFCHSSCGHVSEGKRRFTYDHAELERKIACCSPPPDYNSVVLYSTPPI

With `CNc1ncc2cc(-c3cc(Cl)ccc3Cl)c(=O)n(CCCCN)c2n1` [compound 8, 8-(4-Aminobutyl)-6-(2,5-dichlorophenyl)-2-(methylamino)pyrido[2,3-d]pyrimidin-7(8H)-one] the ΔTm at 10 µM (AurA; read-out: dTm 8) was 1.9 °C, the ΔTm at 10 µM (Haspin; read-out: dTm 8) was 0.6 °C and the ΔTm at 10 µM (MAP2K6; read-out: dTm 8) was 1.3 °C. The ΔTm at 10 µM (FLT1; read-out: dTm 8) was 6 °C.
In the case of `CNc1ncc2cc(-c3cc(C(F)(F)F)ccc3Cl)c(=O)n(CCCCN)c2n1` [compound 9, 8-(4-Aminobutyl)-6-(2-chloro-5-(trifluoromethyl)phenyl)-2-(methylamino)pyrido[2,3-d]pyrimidin-7(8H)-one], the ΔTm at 10 µM (AurA; read-out: dTm 9) is reported as 1.3 °C, the ΔTm at 10 µM (Haspin; read-out: dTm 9) is reported as 0.1 °C and the ΔTm at 10 µM (MAP2K6; read-out: dTm 9) is reported as 0.8 °C. For the same compound, the ΔTm at 10 µM (FLT1; read-out: dTm 9) was 5.3 °C.
Compound `CNc1ncc2cc(-c3cc(Cl)ccc3Br)c(=O)n(CCCCN)c2n1` [compound 10, 8-(4-Aminobutyl)-6-(2-bromo-5-chlorophenyl)-2-(methylamino)pyrido[2,3-d]pyrimidin-7(8H)-one] has a ΔTm at 10 µM (AurA; read-out: dTm 10) of 2 °C, a ΔTm at 10 µM (Haspin; read-out: dTm 10) of 0.6 °C and a ΔTm at 10 µM (MAP2K6; read-out: dTm 10) of 1.5 °C. The ΔTm at 10 µM (FLT1; read-out: dTm 10) was 5 °C.
`CNc1ncc2cc(-c3cc(Br)ccc3Br)c(=O)n(CCCCN)c2n1` [compound 11, 8-(4-Aminobutyl)-6-(2,5-dibromophenyl)-2-(methylamino)pyrido[2,3-d]pyrimidin-7(8H)-one] was tested, and the ΔTm at 10 µM (AurA; read-out: dTm 11) was 1.9 °C, the ΔTm at 10 µM (Haspin; read-out: dTm 11) was 0.7 °C and the ΔTm at 10 µM (MAP2K6; read-out: dTm 11) was 1.6 °C. For the same compound, the ΔTm at 10 µM (FLT1; read-out: dTm 11) was 5.8 °C.
In the case of `CNc1ncc2cc(-c3cc(F)c(-c4cccc(C)n4)cc3F)c(=O)n(CCCCN)c2n1` [compound 12, 8-(4-Aminobutyl)-6-(2,5-difluoro-4-(6-methylpyridin-2-yl)phenyl)-2-(methylamino)pyrido[2,3-d]pyrimidin-7(8H)-one], the ΔTm at 10 µM (AurA; read-out: dTm 12) is reported as -2.4 °C, the ΔTm at 10 µM (Haspin; read-out: dTm 12) is reported as -0.4 °C and the ΔTm at 10 µM (MAP2K6; read-out: dTm 12) is reported as 3.8 °C. For the same compound, the ΔTm at 10 µM (FLT1; read-out: dTm 12) was 2.8 °C.
